Columns and labels:
C. auris [1] = assay: Differentiation of C. auris from other Candida species with other QACs in growth media; assay type: cell-based; conditions: QAC added to growth medium
Candida rugosa = assay: BAC media panel growth key (Table A, FIG. 19); assay type: cell-based; conditions: BAC low 1.5 mg/l or high 10 mg/l; pH 3.3 or 7.5; peptone, potato dextrose or YNB with amino acids; 23° C. or 37° C.
Description: (§1) As an example, a group of 36 yeast strains with Candida-like morphology representing 29 different species was used to define single species or subgroups of species depending on their QAC sensitivity at different temperatures, pH values and in the presence of different supplements (e.g. peptone, potato dextrose, and YNB with amino acids).
(§2) Preliminary tests were designed with several representative yeast strains with a range of benzalkonium chloride (“BAC”) concentrations, a mix of supplements, neutral pH, and intermediate temperature (30° C.). The observed growth characteristics made it likely that two BAC concentrations (“low”=1.5 mg/l and “high”=10 mg/l) could be used in conjunction with the three different growth supplements (used separately). Low and high pH and temperature values were defined to elicit species-specific growth responses: two different pH conditions (pH 3.3 and pH 7.5, adjusted with concentrations of HCl or 100 mg/ml NaOH) and incubation temperatures (23° C. and 37° C.). Commonly used concentrations for peptone (20 g/l), potato dextrose (24 g/l), and yeast nitrogen base with amino acids (6.7 g/l) were applied. […] For example: “pH7.5/low BAC/Pep-23° C.” refers to a plate with pH 7.5, […] BAC (low BAC) containing peptone as a growth supplement and incubated at 23° C.
(§3) All 36 strains were streaked and precultured for 48 h on Sabauroud-dextrose medium at 30° C. before cell samples were suspended in water (as described before). 10-15 μl drops of these suspensions were applied to the different media and plates were incubated in parallel at 37° C. and 23° C. These drops were classified as growing (+) or non-growing (−) after 3 days or 5 days of incubation, respectively.

Candida guilliermondii = assay: BAC media panel growth key (Table A, FIG. 19); assay type: cell-based; conditions: BAC low 1.5 mg/l or high 10 mg/l; pH 3.3 or 7.5; peptone, potato dextrose or YNB with amino acids; 23° C. or 37° C.
Description: as §1, §2, §3

Candida auris = assay: BAC media panel growth key (Table A, FIG. 19); assay type: cell-based; conditions: BAC low 1.5 mg/l or high 10 mg/l; pH 3.3 or 7.5; peptone, potato dextrose or YNB with amino acids; 23° C. or 37° C.
Description: as §1, §2, §3

Candida valida = assay: BAC media panel growth key (Table A, FIG. 19); assay type: cell-based; conditions: BAC low 1.5 mg/l or high 10 mg/l; pH 3.3 or 7.5; peptone, potato dextrose or YNB with amino acids; 23° C. or 37° C.
Description: as §1, §2, §3

C. auris [2] = assay: Plate assay on Sabouraud dextrose medium with tBHP (FIGS. 13A-13B); assay type: cell-based, Candida auris; conditions: 30° C.
Experimental: FIGS. 13A-13B illustrate C. auris's relative sensitivity to tBHP. FIG. 13A depicts a plate with a tBHP-containing culture medium that includes seven different yeasts (Candida albicans, Candida glabrata, Candida krusei, Candida auris, Candida haemulonii, Candida famata, and Saccharomyces cerevisiae) at five different calculated cell counts (62, 625, 6,250, […], with the uncertainty inherent in the calculation). The yeast-containing plate was incubated at 30° C. The plating scheme is illustrated in FIG. 1. The culture medium comprised a Sabouraud dextrose medium with tBHP (added after autoclaving the other media ingredients from a 70% solution in water). Whereas a resuspension of cells picked from a colony will always enhance the sensitivity of this (and related) assays, it is possible to streak cells without any dilution directly from a colony if the plate is evaluated early (after approximately 24 hours, some regrowth will occur later), as depicted in FIG. 13B. […]

Compound: CCCCCCCCCCCCCC[N+](C)(C)C.[Br-] [tetradecyltrimethylammonium bromide]
- use to differentiate C. auris from other Candida species (C. auris [1]): successfully used

Compound: benzalkonium chloride
- growth pattern over 24 BAC / supplement / pH / temperature conditions (Candida rugosa): growth at the high concentration appears to be restricted to the low pH
- growth pattern over 24 BAC / supplement / pH / temperature conditions (Candida guilliermondii): growth is observed under all conditions at 23 °C but not 37 °C
- growth pattern over 24 BAC / supplement / pH / temperature conditions (Candida auris): resistance to BAC under virtually all conditions
- growth pattern over 24 BAC / supplement / pH / temperature conditions (Candida valida): BAC sensitivity under all conditions
- use to differentiate C. auris from other Candida species (C. auris [1]): successfully used

Compound: CC(C)(C)CC(C)(C)c1ccc(OCCOCC[N+](C)(C)Cc2ccccc2)cc1 [benzethonium chloride]
- use to differentiate C. auris from other Candida species (C. auris [1]): successfully used

Compound: CC(C)(C)OO [tert-butyl-hydroperoxide]
- sensitivity to tBHP relative to other yeasts (C. auris [2]): relatively high sensitivity

— patent US11512279B2, “Technology to generate and utilize customized microorganism-growth assay keys” (priority 2018, dated 2022)
